Results from PubChem BioAssay AID256 (DTP/NCI, 2004).
Where “and” joins values, the source holds several entries; their conditions need not be identical. Identical values can stand only once. Toxic doses and inconclusive results are not listed.

System: CD2F1 mice, L1210 leukemia ip, survival T/C
Test: NCI In Vivo Anticancer Drug Screen. Data for tumor model L1210 Leukemia (intraperitoneal) in CD2F1 (CDF1) mice
Conditions: higher = longer survival
Procedure, shortened: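 In this screen, transplantable tumors were grown in mice given either the compound or its vehicle. Results were expressed as the treated measurement relative to the control measurement.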

NC(=O)c1cn(C2OC(CO)C(O)C2O)c2ncnc(N)c12 (stereo not drawn)
T/C (endpoint: mean survival time, dose: 0.06 mg/kg/injection, schedule: Q01DX009 (ip), vehicle: acid diluted with saline): 117 % of control | T/C (endpoint: mean survival time, dose: 0.06 mg/kg/injection, schedule: Q01DX009 (ip), vehicle: saline): 108 % of control | T/C (endpoint: mean survival time, dose: 0.08 mg/kg/injection, schedule: Q## X008 (ip), vehicle: carboxymethylcellulose (CMC)): 117 % of control | T/C (endpoint: mean survival time, dose: 0.13 mg/kg/injection, schedule: Q01DX009 (ip), vehicle: saline): 120 % of control and 121 % of control | T/C (endpoint: mean survival time, dose: 0.13 mg/kg/injection, schedule: Q03HX008 (ip), vehicle: saline): 124 % of control | T/C (endpoint: mean survival time, dose: 0.13 mg/kg/injection, schedule: Q03HX016 (ip), vehicle: saline): 123 % of control | T/C (endpoint: mean survival time, dose: 0.13 mg/kg/injection, schedule: Q03HX024 (ip), vehicle: saline): 119 % of control | T/C (endpoint: mean survival time, dose: 0.2 mg/kg/injection, schedule: Q01DX005 (ip), vehicle: saline): 115 % of control | T/C (endpoint: mean survival time, dose: 0.25 mg/kg/injection, schedule: Q01DX005 (ip), vehicle: saline + alcohol): 124 % of control | T/C (endpoint: mean survival time, dose: 0.31 mg/kg/injection, schedule: Q## X002 (ip), vehicle: carboxymethylcellulose (CMC)): 122 % of control | T/C (endpoint: mean survival time, dose: 0.31 mg/kg/injection, schedule: Q## X008 (ip), vehicle: carboxymethylcellulose (CMC)): 114 % of control | T/C (endpoint: mean survival time, dose: 0.5 mg/kg/injection, schedule: Q01DX009 (ip), vehicle: saline sonified): 123 % of control | T/C (endpoint: mean survival time, dose: 0.5 mg/kg/injection, schedule: Q03HX024 (ip), vehicle: saline): 95 % of control | T/C (endpoint: mean survival time, dose: 0.5 mg/kg/injection, schedule: Q04DX003 (ip), vehicle: saline): 122 % of control | T/C (endpoint: mean survival time, dose: 0.63 mg/kg/injection, schedule: Q01DX001 (ip), vehicle: carboxymethylcellulose (CMC)): 123 % of control | T/C (endpoint: mean survival time, dose: 0.63 mg/kg/injection, schedule: Q## X002 (ip), vehicle: carboxymethylcellulose (CMC)): 124 % of control | T/C (endpoint: mean survival time, dose: 0.63 mg/kg/injection, schedule: Q## X008 (ip), vehicle: carboxymethylcellulose (CMC)): 91 % of control | T/C (endpoint: mean survival time, dose: 1.0 mg/kg/injection, schedule: Q01DX001 (ip), vehicle: saline): 115 % of control and 119 % of control | T/C (endpoint: mean survival time, dose: 1.0 mg/kg/injection, schedule: Q01DX007 (ip), vehicle: saline): 119 % of control | T/C (endpoint: mean survival time, dose: 1.0 mg/kg/injection, schedule: Q01DX009 (ip), vehicle: saline sonified): 88 % of control and 95 % of control and 111 % of control | T/C (endpoint: mean survival time, dose: 1.0 mg/kg/injection, schedule: Q01DX009 (oral), vehicle: saline): 93 % of control | T/C (endpoint: mean survival time, dose: 1.0 mg/kg/injection, schedule: Q04DX003 (ip), vehicle: saline): 122 % of control | T/C (endpoint: mean survival time, dose: 1.0 mg/kg/injection, schedule: Q08DX002 (ip), vehicle: saline): 117 % of control | T/C (endpoint: mean survival time, dose: 1.25 mg/kg/injection, schedule: Q01DX001 (ip), vehicle: carboxymethylcellulose (CMC)): 121 % of control | T/C (endpoint: mean survival time, dose: 1.25 mg/kg/injection, schedule: Q## X002 (ip), vehicle: carboxymethylcellulose (CMC)): 114 % of control | T/C (endpoint: mean survival time, dose: 1.5 mg/kg/injection, schedule: Q01DX009 (ip), vehicle: saline with Tween-80): 109 % of control | T/C (endpoint: mean survival time, dose: 2.0 mg/kg/injection, schedule: Q01DX001 (ip), vehicle: saline): 117 % of control and 112 % of control | T/C (endpoint: mean survival time, dose: 2.0 mg/kg/injection, schedule: Q01DX001 (oral), vehicle: saline): 107 % of control | T/C (endpoint: mean survival time, dose: 2.0 mg/kg/injection, schedule: Q01DX009 (ip), vehicle: acid diluted with saline): 111 % of control | T/C (endpoint: mean survival time, dose: 2.0 mg/kg/injection, schedule: Q01DX009 (ip), vehicle: saline sonified): 88 % of control and 93 % of control | T/C (endpoint: mean survival time, dose: 2.0 mg/kg/injection, schedule: Q01DX009 (oral), vehicle: saline): 97 % of control | T/C (endpoint: mean survival time, dose: 2.0 mg/kg/injection, schedule: Q08DX002 (ip), vehicle: saline): 119 % of control | T/C (endpoint: mean survival time, dose: 2.5 mg/kg/injection, schedule: Q01DX001 (ip), vehicle: carboxymethylcellulose (CMC)): 178 % of control | T/C (endpoint: mean survival time, dose: 4.0 mg/kg/injection, schedule: Q01DX001 (ip), vehicle: saline): 121 % of control and 124 % of control | T/C (endpoint: mean survival time, dose: 4.0 mg/kg/injection, schedule: Q01DX001 (oral), vehicle: saline): 112 % of control | T/C (endpoint: mean survival time, dose: 4.0 mg/kg/injection, schedule: Q01DX005 (ip), vehicle: saline + alcohol): 93 % of control | T/C (endpoint: mean survival time, dose: 4.0 mg/kg/injection, schedule: Q01DX009 (oral), vehicle: saline): 98 % of control | T/C (endpoint: mean survival time, dose: 4.0 mg/kg/injection, schedule: Q04DX003 (ip), vehicle: saline): 101 % of control | T/C (endpoint: mean survival time, dose: 4.0 mg/kg/injection, schedule: Q08DX002 (ip), vehicle: saline): 120 % of control | T/C (endpoint: mean survival time, dose: 8.0 mg/kg/injection, schedule: Q01DX001 (ip), vehicle: saline): 113 % of control | T/C (endpoint: mean survival time, dose: 8.0 mg/kg/injection, schedule: Q01DX001 (oral), vehicle: saline): 101 % of control | T/C (endpoint: mean survival time, dose: 8.0 mg/kg/injection, schedule: Q08DX002 (ip), vehicle: saline): 88 % of control | T/C (endpoint: mean survival time, dose: 16.0 mg/kg/injection, schedule: Q01DX001 (oral), vehicle: saline): 107 % of control | T/C (endpoint: mean survival time, dose: 125.0 micrograms/kg/injection, schedule: Q01DX006 (iv), vehicle: saline): 106 % of control | T/C (endpoint: mean survival time, dose: 125.0 micrograms/kg/injection, schedule: Q01DX Z (im), vehicle: saline): 100 % of control | T/C (endpoint: mean survival time, dose: 250.0 micrograms/kg/injection, schedule: Q01DX006 (iv), vehicle: saline): 101 % of control | T/C (endpoint: mean survival time, dose: 250.0 micrograms/kg/injection, schedule: Q01DX Z (im), vehicle: saline): 101 % of control | T/C (endpoint: mean survival time, dose: 500.0 micrograms/kg/injection, schedule: Q01DX006 (iv), vehicle: saline): 106 % of control | T/C (endpoint: mean survival time, dose: 500.0 micrograms/kg/injection, schedule: Q01DX Z (im), vehicle: saline): 107 % of control | T/C (endpoint: mean survival time, dose: 1000.0 micrograms/kg/injection, schedule: Q01DX006 (iv), vehicle: saline): 109 % of control | T/C (endpoint: mean survival time, dose: 1000.0 micrograms/kg/injection, schedule: Q01DX Z (im), vehicle: saline): 103 % of control | T/C (endpoint: median survival time, dose: 2.0 mg/kg/injection, schedule: Q01DX009 (ip), vehicle: saline): 112 % of control

CC(=O)OC1CC2CC(O)(C(=O)CO)CC2C2CCC3=CC(=O)CC3C(C)(O)C12 (stereo not drawn)
T/C (endpoint: mean survival time, dose: 75.0 mg/kg/injection, schedule: Q01DX001 (ip), vehicle: saline): 91 % of control | T/C (endpoint: mean survival time, dose: 150.0 mg/kg/injection, schedule: Q01DX001 (ip), vehicle: saline): 96 % of control | T/C (endpoint: mean survival time, dose: 300.0 mg/kg/injection, schedule: Q01DX001 (ip), vehicle: saline): 95 % of control

O=C1CC2C3=C(CCC3)CCN2C2=C1CC(OC(=O)c1ccccc1)CC2 (stereo not drawn)
T/C (endpoint: mean survival time, dose: 12.5 mg/kg/injection, schedule: Q04DX003 (ip), vehicle: saline with Tween-80): 90 % of control | T/C (endpoint: mean survival time, dose: 25.0 mg/kg/injection, schedule: Q04DX003 (ip), vehicle: saline with Tween-80): 88 % of control | T/C (endpoint: mean survival time, dose: 50.0 mg/kg/injection, schedule: Q04DX003 (ip), vehicle: saline with Tween-80): 94 % of control
